Measurements reported in paper PMC8151276, “An Integrated Approach toward NanoBRET Tracers for Analysis of GPCR Ligand Engagement” (Molecules, 2021).

Assays:
Format in all cases: binding
FPR1 = target: T1, FPR1 (Homo sapiens, UniProt P21462); assay: NanoBRET screen HiBiT-FPR1 in HEK293; details: FPR1
T1 construct: purchased Promega (in-house HiBiT-GPCR construct library, NanoBRET)
T1 sequence (P21462 1-350): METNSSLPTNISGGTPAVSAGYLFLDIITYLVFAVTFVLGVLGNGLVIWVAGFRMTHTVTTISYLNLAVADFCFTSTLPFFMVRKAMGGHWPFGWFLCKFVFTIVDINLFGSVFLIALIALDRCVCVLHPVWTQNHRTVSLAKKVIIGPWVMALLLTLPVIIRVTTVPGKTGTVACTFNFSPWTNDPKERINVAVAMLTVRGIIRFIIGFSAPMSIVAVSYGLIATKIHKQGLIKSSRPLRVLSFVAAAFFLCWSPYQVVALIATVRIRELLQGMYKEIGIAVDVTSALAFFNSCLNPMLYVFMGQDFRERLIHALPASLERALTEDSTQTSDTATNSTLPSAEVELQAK
Protocol: (§1) Each tracer candidate was screened across the entire library of HiBiT-GPCR constructs using NanoBRET as the detection modality. As depicted in Figure 4A, the specificity of interactions was evaluated through decrease in BRET due to competitive displacement of a bound tracer by excess parental compound. Each tracer was analyzed for binding to each HiBiT-GPCR fusion in the absence and in the presence of competing parental compound. Briefly, HEK293 cells were transfected with HiBiT-GPCR constructs diluted into promoterless DNA to reduce expression and maximize translocation to the cell surface. Each tracer candidate was then screened at concentrations of 1 μM and 0.1 μM across cells expressing these fusions. Cells were treated for 1.5 h with tracer either alone or in the presence of 20 μM competing parental compound (i.e., control). BRET was measured upon addition of purified LgBiT and subsequent complementation with HiBiT genetically fused to a GPCR. The specificity of interactions was assessed through a decrease in BRET signal due to competitive displacement of the bound tracer. To further gauge the robustness of these interactions, the fold response over the control (i.e., BRETtracer/BRETcontrol) was calculated. We chose a 1.5-fold response, which translates to ≥7-fold signal over noise as the minimal threshold required to score an interaction as positive. […]. Below we highlight the screening results obtained for our exemplary fluorescent tracers based on Clozapine, Amitriptyline and AZD1283.
(§2) HiBiT-GPCR DNA constructs were diluted in 10 mM Tris pH 8 to a final concentration of 0.01 μg/μL, arrayed in 96-well plates and stored at −20 °C. For transfection, HEK293 cells were suspended in Opti-MEM (without phenol red) supplemented with 2% fetal bovine serum (Seradigm) and 100 units/mL penicillin–streptomycin (Gibco) at a final concentration of 220,000 cells/mL and dispensed into white 96-well plates at 90 μL/well. Subsequent transfections and screens were carried using an Agilent Bravo Automated Liquid Handling Platform. First, the 96-well HiBiT DNA arrays were diluted 25-fold in Opti-MEM (without serum or phenol red) to a final concentration of 0.0004 μg/μL and 20 μL of the diluted DNAs were transferred into new 96-well plates. Next, promoterless carrier DNA (1 μg/μL) was diluted 25-fold (0.04 μg/μL) and then dispensed into the diluted arrays at 20 μL/well. Following brief mixing, Viafect transfection reagent (Promega) diluted 16-fold into Opti-MEM was dispensed into the plates at 40 μL/well. After mixing by pipetting, plates were incubated for 10 min on the pipetting station deck. The DNA-transfection reagent complexes were then added to plates containing cells. To facilitate the screen, 10 μL of DNA-transfection reagent complexes were added in duplicates to the top 4 and bottom 4 rows, resulting in two identical 48-well arrays per plate. Plates with transfected cells were incubated for 18–20 h at 37 °C/5% CO2. A screen of each tracer across the entire library using two different concentrations requires duplicate plates of transfected cells. Depending on the number of tracers being screened, transfections can be scaled up using the same ratios. The next day, for each tracer, four 20× screening solutions in tracer dilution buffer (Promega) were prepared: two duplicates at final concentration of 20 μM and two duplicates at a final concentration of 2 μM. A competing unmodified compound was added to one of each duplicate at a final concentration of 400 μM. The four resulting solutions were diluted 4-fold in Opti-MEM without serum or phenol red to generate 5× solutions (5 µM and 0.5 µM tracer +/− 100 μM competing compound). To screen the library, a BioTek MultiFlo FX liquid dispenser was used to dispense 22.5 µL of tracer solution to the top 4 rows and 22.5 µL tracer + competing compound solution to the 4 bottom rows. Plates were briefly mixed on an orbital shaker and incubated for 1.5 h at room temperature. […]

P2RY6 = target: T2, P2RY6 (Homo sapiens, UniProt Q15077); assay: NanoBRET screen HiBiT-P2RY6 in HEK293; details: P2RY6
T2 construct: purchased Promega (in-house HiBiT-GPCR construct library, NanoBRET)
Protocol: as §1, §2

FZD7 = target: T3, FZD7 (Homo sapiens, UniProt O75084); assay: NanoBRET screen HiBiT-FZD7 in HEK293; details: FZD7
T3 construct: purchased Promega (in-house HiBiT-GPCR construct library, NanoBRET)
Protocol: as §1, §2

FZD5 = target: T4, FZD5 (Homo sapiens, UniProt Q13467); assay: NanoBRET screen HiBiT-FZD5 in HEK293; details: FZD5
T4 construct: purchased Promega (in-house HiBiT-GPCR construct library, NanoBRET)
Protocol: as §1, §2

OPRK1 = target: T5, OPRK1 (Homo sapiens, UniProt P41145); assay: NanoBRET screen HiBiT-OPRK1 in HEK293; details: OPRK1
T5 construct: purchased Promega (in-house HiBiT-GPCR construct library, NanoBRET)
Protocol: as §1, §2

ADORA3 = target: T6, ADORA3 (Homo sapiens, UniProt P0DMS8); assay: NanoBRET screen HiBiT-ADORA3 in HEK293; details: ADORA3
T6 construct: purchased Promega (in-house HiBiT-GPCR construct library, NanoBRET)
T6 sequence (P0DMS8 1-318): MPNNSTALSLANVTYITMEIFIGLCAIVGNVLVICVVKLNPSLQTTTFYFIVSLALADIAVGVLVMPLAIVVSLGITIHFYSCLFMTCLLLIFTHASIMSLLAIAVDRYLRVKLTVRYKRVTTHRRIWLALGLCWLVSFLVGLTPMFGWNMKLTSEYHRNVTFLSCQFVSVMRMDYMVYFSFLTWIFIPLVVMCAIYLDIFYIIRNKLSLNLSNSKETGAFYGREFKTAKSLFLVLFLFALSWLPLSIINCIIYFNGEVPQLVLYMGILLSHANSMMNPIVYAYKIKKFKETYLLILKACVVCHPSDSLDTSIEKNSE
Protocol: as §1, §2

T4 sequence (Q13467 27-585): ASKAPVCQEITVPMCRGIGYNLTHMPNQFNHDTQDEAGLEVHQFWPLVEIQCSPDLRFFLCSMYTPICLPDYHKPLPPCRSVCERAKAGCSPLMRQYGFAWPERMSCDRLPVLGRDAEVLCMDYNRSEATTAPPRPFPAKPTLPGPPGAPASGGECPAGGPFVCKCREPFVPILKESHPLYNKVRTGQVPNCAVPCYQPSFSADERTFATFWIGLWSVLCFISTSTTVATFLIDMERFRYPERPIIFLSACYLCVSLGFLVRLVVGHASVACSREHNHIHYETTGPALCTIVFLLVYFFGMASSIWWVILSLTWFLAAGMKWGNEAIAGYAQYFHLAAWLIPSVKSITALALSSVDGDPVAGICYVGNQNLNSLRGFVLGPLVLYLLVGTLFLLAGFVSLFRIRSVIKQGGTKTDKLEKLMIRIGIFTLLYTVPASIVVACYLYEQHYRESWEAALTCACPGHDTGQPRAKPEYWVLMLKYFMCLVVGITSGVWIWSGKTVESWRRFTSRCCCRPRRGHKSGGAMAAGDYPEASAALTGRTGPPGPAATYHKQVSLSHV
T2 sequence (Q15077 whole entry): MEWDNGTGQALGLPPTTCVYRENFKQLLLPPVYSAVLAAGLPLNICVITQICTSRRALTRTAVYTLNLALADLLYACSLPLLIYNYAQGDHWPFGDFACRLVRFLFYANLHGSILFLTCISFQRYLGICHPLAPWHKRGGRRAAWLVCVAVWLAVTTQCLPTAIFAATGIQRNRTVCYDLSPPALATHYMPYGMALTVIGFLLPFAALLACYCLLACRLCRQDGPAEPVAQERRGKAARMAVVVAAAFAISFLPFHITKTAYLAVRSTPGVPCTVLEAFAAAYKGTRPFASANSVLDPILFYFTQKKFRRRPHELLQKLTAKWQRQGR
T5 sequence (P41145 whole entry): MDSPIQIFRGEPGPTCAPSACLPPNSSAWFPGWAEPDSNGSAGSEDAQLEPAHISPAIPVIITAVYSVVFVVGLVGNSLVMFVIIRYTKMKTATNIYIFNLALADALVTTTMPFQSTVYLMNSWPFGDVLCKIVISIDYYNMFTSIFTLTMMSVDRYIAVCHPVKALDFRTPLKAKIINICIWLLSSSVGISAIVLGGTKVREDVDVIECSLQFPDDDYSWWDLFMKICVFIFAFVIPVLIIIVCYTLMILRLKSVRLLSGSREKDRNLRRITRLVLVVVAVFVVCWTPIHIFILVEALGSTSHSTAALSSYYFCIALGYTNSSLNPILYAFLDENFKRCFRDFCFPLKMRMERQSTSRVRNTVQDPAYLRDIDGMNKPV

| Structure (SMILES) | NanoBRET Fold Response (FPR1; tracer 0.1μM) | NanoBRET Fold Response (FPR1; tracer 1μM) | NanoBRET Fold Response (P2RY6; tracer 0.1μM) | NanoBRET Fold Response (P2RY6; tracer 1μM) | NanoBRET Fold Response (FZD7; tracer 0.1μM) | NanoBRET Fold Response (FZD7; tracer 1μM) | NanoBRET Fold Response (FZD5; tracer 0.1μM) | NanoBRET Fold Response (FZD5; tracer 1μM) | NanoBRET Fold Response (OPRK1; tracer 0.1μM) | NanoBRET Fold Response (OPRK1; tracer 1μM) | NanoBRET Fold Response (ADORA3; tracer 0.1μM) | NanoBRET Fold Response (ADORA3; tracer 1μM) | other results |
| --- | --- | --- | --- | --- | --- | --- | --- | --- | --- | --- | --- | --- | --- |
| O=C(CCc1ccc2n1[B-](F)(F)[N+]1=C(c3ccc[nH]3)C=CC1=C2)NCCOCCOCCNC(=O)OCCOCCN1CCN(C2=Nc3ccccc3Sc3ccccc32)CC1 [Quetiapine-a-2-NB590] | 1.05 | 0.92 | 1.30 | 0.96 | 1.04 | 0.91 | 1.03 | 0.91 | 0.94 | 0.97 | 0.98 | 0.82 |  |
| O=C(CCOCCOCCOCCOCCNC(=O)CCc1ccc2n1[B-](F)(F)[N+]1=C(c3ccc[nH]3)C=CC1=C2)NCCCN1CCN(C2=Nc3cc(Cl)ccc3Nc3ccccc32)CC1 [Clozapine-a-2-NB590] |  |  |  |  |  |  |  |  |  |  |  |  | NanoBRET Fold Response (FPR1; 0.1μM tracer): 1.01; NanoBRET Fold Response (FPR1; 1μM tracer): 1.22; NanoBRET Fold Response (P2RY6; 0.1μM tracer): 1.02; NanoBRET Fold Response (P2RY6; 1μM tracer): 0.92; NanoBRET Fold Response (FZD7; 0.1μM tracer): 1.00; NanoBRET Fold Response (FZD7; 1μM tracer): 0.98; NanoBRET Fold Response (FZD5; 0.1μM tracer): 1.15; NanoBRET Fold Response (FZD5; 1μM tracer): 0.95; NanoBRET Fold Response (OPRK1; 0.1μM tracer): 1.01; NanoBRET Fold Response (OPRK1; 1μM tracer): 0.97; NanoBRET Fold Response (ADORA3; 0.1μM tracer): 1.04; NanoBRET Fold Response (ADORA3; 1μM tracer): 0.83 |
| N#CN=C(NCCCOc1cccc(CN2CCCCC2)c1)NCCNC(=O)CCOCCOCCOCCOCCNC(=O)CCc1ccc2n1[B-](F)(F)[N+]1=C(c3ccc[nH]3)C=CC1=C2 [Aminopotentidine-2-NB590] | 0.99 | 0.97 | 1.12 | 0.86 | 0.94 | 0.99 | 1.06 | 1.05 | 1.14 | 1.07 | 1.16 | 1.03 |  |
| O=C(CCc1ccc2n1[B-](F)(F)[N+]1=C(c3ccc[nH]3)C=CC1=C2)NCc1ccc(C(=O)NCCOCCOCCNCC(O)COc2cccc3ccccc23)cc1 (stereo not drawn) [Propranolol-3-NB590] |  |  |  |  |  |  |  |  |  |  |  |  | NanoBRET Fold Response (FPR1; 0.1μM): 1.02; NanoBRET Fold Response (FPR1; 1μM): 0.98; NanoBRET Fold Response (P2RY6; 0.1μM): 1.07; NanoBRET Fold Response (P2RY6; 1μM): 0.96; NanoBRET Fold Response (FZD7; 0.1μM): 1.01; NanoBRET Fold Response (FZD7; 1μM): 1.04; NanoBRET Fold Response (FZD5; 0.1μM): 1.07; NanoBRET Fold Response (FZD5; 1μM): 1.02; NanoBRET Fold Response (OPRK1; 0.1μM): 1.08; NanoBRET Fold Response (OPRK1; 1μM): 1.02; NanoBRET Fold Response (ADORA3; 0.1μM): 1.04; NanoBRET Fold Response (ADORA3; 1μM): 0.98 |
